Test results published in patent US10669227B2 (THE RESEARCH FOUNDATION OF STATE UNIVERSITY OF NEW YORK, priority 2009, dated 2020).
Entries after “also recorded” stand apart in the source; their conditions may differ.

How the values were obtained:
human monocytes = assay: Cytotoxicity in human monocytes (MTS); type: cell-based
Description: Briefly, human peripheral blood monocytes (HMs) were isolated from a leukocyte concentrate by density gradient centrifugation (Lymphoprep) and the isolated HMs cultured (2 h, 37° C.) to remove non-adherent cells. […] After incubation, the proinflammatory cytokines, TNFα, […], MCP-1 and IL-6 were measured in the conditioned media by ELISA and cytotoxicity was assessed by measuring the absorbance (490 nm) of formazan produced by reduction of MTS. The HMs alone±0.1-0.5% DMSO produced minimal levels of these pro-inflammatory cytokines. However, addition of 100 ng/ml or 10 μg/ml of LPS both dramatically stimulated cytokine production.

IL-1β = assay: Inhibition of IL-1β production by LPS-stimulated monocytes; type: cell-based; conditions: Homo sapiens, Monocyte, 18 h, read-out: % Inhibition of IL-1β produced by stimulated Monocytes with LPS @ 18 h
Description: (§1) Briefly, human peripheral blood monocytes (HMs) were isolated from a leukocyte concentrate by density gradient centrifugation (Lymphoprep) and the isolated HMs cultured (2 h, 37° C.) to remove non-adherent cells. The adherent HMs wore cultured for 18 h (1×10^6 cells/well, 24-well plates)±endotoxin (LPS)±different compounds dissolved in DMSO (the final concentration of DMSO in the RPMI serum-free culture media with Pen./Strep. antibiotics was no greater than 0.5%). After incubation, the proinflammatory cytokines, TNFα, […], MCP-1 and IL-6 were measured in the conditioned media by ELISA and cytotoxicity was assessed by measuring the absorbance (490 nm) of formazan produced by reduction of MTS. The HMs alone±0.1-0.5% DMSO produced minimal levels of these pro-inflammatory cytokines. However, addition of 100 ng/ml or 10 μg/ml of LPS both dramatically stimulated cytokine production.

MCP-1 = assay: Inhibition of MCP-1 production by LPS-stimulated monocytes; type: cell-based, human
Description: as §1
(§2) The cytokine levels were measured by Luminex multiplex, a method that allows the simultaneous measurement of different biological markers.

IL-6 = assay: Inhibition of IL-6 production by LPS-stimulated monocytes; type: cell-based; conditions: Homo sapiens, Monocyte, 18 h, read-out: % Inhibition of IL-6 produced by stimulated Monocytes with LPS @ 18 h
Description: as §1

VEGF = VEGF level in LPS-challenged human monocytes, Luminex multiplex; type: cell-based; conditions: 2 μM, FIG. 2
Description: as §2

NFκB activation = NFκB activation in human monocytes in cell culture; type: cell-based; conditions: Monocyte
[1] = system: p38 MAP kinase activation; assay: p38 MAP kinase activation, preliminary studies; type: cell-based
[2] = Solubility in aqueous solutions; type: physicochemical; conditions: comparative
[3] = Type I diabetic rat model, 1-week oral treatment: glucose, adverse events, serum level; type: in vivo; conditions: diabetic rats
Text: The purpose of the following was to establish an in vivo model of excessive collagen degradation to be used to test efficacy of the compounds of the subject invention. Male Sprague-Dawley rats (typically 300-400 gms of body weight), specific viral antibody free, were ordered from Charles River. Following general anesthesia via isoflurane anesthetic inhalation, diabetes was induced by an I.V. administration of streptozotocin (STZ) (50*mg/kg body weight) (Sigma Chemical Co., St Louis, Mo., USA) diluted in 0.9% citrated saline (pH 4.5), after 12 hours of fasting. After the streptozotocin injection, the animals were given free access to water and food. […] In this test, the test-paper color changes to dark brown which indicates glycosuria.
(§3) The latter assays were carried out using Western blot analysis with monoclonal antibodies to MMP-8.

[4] = molecular target: MMP-2 (72 kDa gelatinase) (Rattus norvegicus (Rat), UniProt P33436); assay: Diabetic rat, plasma gelatinase by gelatin zymography (MMP-2); type: in vivo; conditions: diabetic rats, 100 mg/kg oral once/day, 7 days
[5] = molecular target: MMP-9 (92 kDa gelatinase) (Rattus norvegicus (Rat), UniProt P50282); assay: Diabetic rat, plasma gelatinase by gelatin zymography (MMP-9); type: in vivo; conditions: diabetic rats, 100 mg/kg oral once/day, 7 days
collagenase-2 (MMP-8) = collagenase-2 (MMP-8) (Rattus norvegicus (Rat), UniProt O88766); assay: Diabetic rat, MMP-8 in skin extracts by Western blot; type: in vivo; conditions: diabetic rats, 100 mg/kg oral once/day, 7 days
Description: as §3

[6] = Type I diabetic rat model, 3-week oral treatment: blood glucose and hemoglobin A1c; type: in vivo; conditions: diabetic rats, 100 and 500 mg/kg oral daily, 3 weeks
Description: (§4) At the end of the treatment protocol, the rats were sacrificed, blood samples were collected, and whole skin (except over limbs) and qingiva were dissected (the skin, because of ample quantities of tissue were analyzed for each rat separately; the gingiva, because of the tiny amounts that could be harvested per rat, were pooled for each experimental group, as prescribed previously for tetracycline studies (30). In addition, the jaw bones were collected, defleshed, and bone loss around the teeth analyzed morphometrically as described previously (42, 43).

MMP-2 [7] = assay: Diabetic rat, gingiva gelatinase by gelatin zymography (MMP-2); type: in vivo; conditions: diabetic rats, oral daily, 3 weeks
Description: as §4
This appearance of MMP-9 only in the gingiva (FIG. 10), but not the skin (FIG. 12), of the diabetic rats is likely the result of the oral bacteria inducing inflammation in the gingiva of these immune-suppressed UD rats, whereas the skin is not exposed to this onslaught of bacteria particularly the anaerobic gram-negative bacteria in the mouth that cause periodontal and gingival inflammation.

alveolar bone loss = assay: Diabetic rat, alveolar bone loss, morphometric; type: in vivo; conditions: 500 mg/kg oral, 3 weeks
Description: as §4
Alveolar bone loss (the signature pathologic event in inflammatory periodontal disease) was assessed in the defleshed jaws of the compound 1-treated (TX) and untreated rats.

MMP-2 [8] = assay: Diabetic rat, MMP-2 in skin by ELISA; type: in vivo; conditions: both low and high doses, 3 weeks
Description: as §4

MMP-13 (Collagenase-3) = MMP-13 (Collagenase-3) (Homo sapiens (Human), UniProt P45452); assay: MMP-13 inhibition in vitro, octapeptide substrate, HPLC; type: biochemical; conditions: read-out: MMP-13 Maximum Inhibition @100 μM

Effect on p38 MAP kinase activation [1]: little/no effect
MMP-8 level in skin extracts (collagenase-2 (MMP-8)): A similar pattern was observed
inhibition at 100 µM (MMP-13 (Collagenase-3)): 69%
SMILES: COC(=O)C(C(=O)/C=C/c1ccc(O)c(OC)c1)C(=O)/C=C/c1ccc(O)c(OC)c1 [Compound 1, 1,7-Bis(4-hydroxy-3-methoxyphenyl)-4-methoxycarbonylhepta-1E,6E-dien-3,5-dione]
Cytotoxicity Monocytes @ 5 h incubation (human monocytes; 2 uM): 2 uM - 0%
Cytotoxicity Monocytes @ 5 h incubation (human monocytes; 10 uM): 10 uM - 0%
Cytotoxicity Monocytes @ 5 h incubation (human monocytes; 25 uM): 25 uM - 33%
Cytotoxicity Monocytes @ 18 h incubation (human monocytes; 25 uM): 25 uM - 45.5%
Cytotoxicity Monocytes @ 18 h incubation (human monocytes; 50 uM): 50 uM - 53%
inhibition at 2 µM (IL-1β; 2 uM): 41%
inhibition at 25 µM (IL-1β; 25 uM): 100%
inhibition at 50 µM (IL-1β; 50 uM): 100%
MCP-1 level in LPS-challenged human monocytes, Luminex multiplex (MCP-1; 2 μM, FIG. 2): potent in reducing
inhibition at 2 µM (MCP-1; Homo sapiens, Monocyte, 18 h, 2 uM, read-out: % Inhibition of MCP-1 produced by stimulated Monocytes with LPS @ 18 h): 74%
inhibition at 25 µM (MCP-1; Homo sapiens, Monocyte, 18 h, 25 uM, read-out: % Inhibition of MCP-1 produced by stimulated Monocytes with LPS @ 18 h): 78%
inhibition at 50 µM (MCP-1; Homo sapiens, Monocyte, 18 h, 50 uM, read-out: % Inhibition of MCP-1 produced by stimulated Monocytes with LPS @ 18 h): 79%
inhibition at 2 µM (IL-6; 2 uM): 30%
inhibition at 25 µM (IL-6; 25 uM): 100%
inhibition at 50 µM (IL-6; 50 uM): 100%
VEGF level in LPS-challenged human monocytes, Luminex multiplex (VEGF): potent in reducing
inhibition at 2 µM (NFκB activation; CRP/oxid-LDL Complex): 91%
inhibition at 10 µM (NFκB activation; CRP/oxid-LDL Complex): 100%
inhibition at 2 µM (NFκB activation; Endotoxin (LPS)): 24%
inhibition at 10 µM (NFκB activation; Endotoxin (LPS)): 85%
Solubility [2]: improved solubility; also recorded: more soluble than the insoluble natural product curcumin
Severity of hyperglycemia (serum glucose) ([3]; 100 mg/kg oral once/day, 7 days): no effect on the severity of hyperglycemia
Description of AEs ([3]; n = 6, 1 week oral treatment): Minor inflamed
Incidence of Adverse Events (AEs) ([3]; n = 6, 1 week oral treatment): 1/6
concentration at 7 days ([3]; male, Sprague-Dawley, rat, serum, 100 mg/kg, 1 week oral treatment, FIG. 7): ~100 ng/mL
Plasma MMP-2 level [4]: reduced the excessive levels of MMPs to essentially normal levels
Plasma MMP-9 level [5]: reduced the excessive levels of MMPs to essentially normal levels
Blood glucose [6]: no significant effect
Hemoglobin A1c level [6]: no significant effect
Pro- and activated-forms of MMP-2 in gingiva (MMP-2 [7]): neither diabetes nor compound 1 appeared to have a detectable effect
Reduction in alveolar bone loss vs untreated groups (alveolar bone loss): less effective
Reduction of elevated MMP-2 level in skin (MMP-2 [8]): 28%
